The subject of series [1] is N. fowleri trophozoites. The series is described as follows: Anti-amoebic viability assay (CellTiter-Blue) with microscopic observation. Format: cell-based, Naegleria fowleri. The note with it: for Selectivity Index: CC50 of C6 glial cell divided by IC50 of inhibition of N. fowleri; for Relative Potency to Miltefosine: IC50 of miltefosine divided by IC50 of compound, N. fowleri; for IC50: Naegleria fowleri, 48 h, N. fowleri trophozoites, viability, mean ± SD of three assays, read-out: IC50 of Inhibition of N. fowleri; for fold increase in potency of anti-amoebic activity relative to corresponding cis-configured derivative: trans vs cis 1,2-restricted derivative with same alkyl chain. As for the experimental part:
(§1) A viability assay was performed to evaluate the inhibitory activity of the tested compounds by determining their IC50 values against N. fowleri, using miltefosine as a reference drug. To assess the selectivity of the tested compounds relative to miltefosine, cytotoxic values that reduced the viability of C6 glial cells by 50% were established.
(§2) N. fowleri Carter NF69 strain (ATCC 30215; American Type Culture Collection, Manassas, VA, USA) was used. Amoeba trophozoites were cultured and maintained in Nelson’s medium containing 5% foetal bovine serum (FBS; Gibco, Grand Island, NY, USA) and 1% penicillin/streptomycin (P/S; Gibco, Grand Island, NY, USA) at 37 °C [56]. C6 rat glial cells (C6 cells; ATCC CCL-107) were cultured in Dulbecco’s Modified Eagle’s Medium (DMEM; Gibco, Grand Island, NY, USA) supplemented with 10% FBS (Gibco, Grand Island, NY, USA) and 1% P/S (Gibco, Grand Island, NY, USA) at 37 °C in a humidified incubator under 5% CO2 atmosphere.
N. fowleri trophozoites (5 × 10^4 cells/well) were seeded in a 96-well microplate (Thermo Fisher Scientific, Waltham, MA, USA) in Nelson’s medium and incubated at 37 °C overnight. N. fowleri trophozoites were treated with 2-fold serial dilutions of tested compounds (from 0 to 200 µM) or miltefosine (150 µM) and incubated at 37 °C for 48 h. The viability of the amoebae was determined using the CellTiter-Blue® Cell viability assay (Promega, Madison, WI, USA). Inhibitory concentration 50 (IC50) and IC90 were calculated by the nonlinear regression method using GraphPad Prism 9.1.0 software (GraphPad Software, San Diego, CA, USA). Amoebae treated with 0.1% DMSO were used as a control, representing 100% cell viability. Morphological changes of the amoebae were observed microscopically.
For orientation: The colour change of resazurin is a common sign of viable cells or microbes.

The nature of series [2]: Cytotoxicity assay for C6 cells (CellTiter-Blue). In kind it is cell-based. The note with it: rat, C6 glial cells, viability, mean ± SD. As for the experimental part: as §1, §2
The potential cytotoxicity of tested compounds and miltefosine in C6 cells was analysed. The cells were seeded in a 96-well microplate (Thermo Fisher Scientific; 2 × 10^4 cells/well), respectively, and incubated overnight until 80% confluent. Serially diluted tested compounds and miltefosine were treated to the cells as described above. Morphological changes of the cells were observed by microscopic examination. Cell viability was determined using the CellTiter-Blue® Cell viability assay (Promega, […], USA). The cytotoxic concentrations 50 (CC50) of tested compounds and miltefosine were calculated using GraphPad Prism 9.1.0 software (GraphPad Software, San Diego, CA, USA). The […] (SI) was determined by the ratio between CC50 and IC50. Cells treated with 0.1% DMSO, which was confirmed not to alter the morphology of the cells by microscopic examination, were used as controls with 100% cell viability.

Experimental findings from paper PMC12298883, “Discovery of Cyclopentane-Based Phospholipids as Miltefosine Analogs with Superior Potency and Enhanced Selectivity Against Naegleria fowleri” (Pharmaceuticals, 2025) are described below.

Some results are limits rather than exact numbers.

A word on the IC50: it is the point on the concentration scale where inhibition reaches its midpoint. What is called CC50 is the concentration that lowers cell viability or growth by half. A high value points to better tolerance by the cells. Regarding `CCCCCCCCCCCCO[C@H]1CCC[C@H]1COP(=O)([O-])OCC[N+](C)(C)C` [Compound 1a], in series [1], the “Selectivity Index” value is above 2.47, the “Relative Potency to Miltefosine” value was around 0.90 fold and the IC50 came out at 162 ± 1.02 µM. In addition, the CC50 in series [2] is above 400 µM.
With `CCCCCCCCCCCCCO[C@H]1CCC[C@H]1COP(=O)([O-])OCC[N+](C)(C)C` [Compound 1b], in series [1], the “Selectivity Index” value was 2.69, the “Relative Potency to Miltefosine” value was 3.74 fold and the IC50 turned out to be 39.1 ± 0.6 µM. This compound also gave a CC50 in series [2] of 105 ± 4.76 µM.
As to `CCCCCCCCCCCCCCCCCCO[C@H]1CCC[C@H]1COP(=O)([O-])OCC[N+](C)(C)C` [Compound 1c], in series [1], the “Selectivity Index” value stood at 2.18, the “Relative Potency to Miltefosine” value came to 2.01 fold and the half-inhibitory concentration (IC50) was 72.7 ± 2.32 µM. The compound further yielded a CC50 in series [2] of 158.4 ± 0.71 µM.
As for `CCCCCCCCCCCCCCCCCCCCO[C@H]1CCC[C@H]1COP(=O)([O-])OCC[N+](C)(C)C` [Compound 1d], in series [1], the “Selectivity Index” value is recorded as 1.59, the “Relative Potency to Miltefosine” value is 3.4 fold and the half-maximal inhibitory concentration (IC50) was 43.6 ± 1.02 µM. For the same compound, in series [2], it took 69.49 ± 0.16 µM to reach half-maximal cytotoxicity (CC50).
Taken in the same sequence, the figures for `CCCCCCCCCCCCCCCCCCCCCCO[C@H]1CCC[C@H]1COP(=O)([O-])OCC[N+](C)(C)C` [Compound 1e] were 0.69, 0.88 fold, 166 ± 68 µM and 114 ± 3.2 µM.
With `CCCCCCCCCCCCCCCCCCO[C@@H]1CCC[C@H]1COP(=O)([O-])OCC[N+](C)(C)C` [Compound 2b], in series [1], the “Selectivity Index” value was found to be 2.94, the “Relative Potency to Miltefosine” value is on record as 6.18 fold, the IC50 was 23.7 ± 0.5 µM and the “fold increase in potency of anti-amoebic activity relative to corresponding cis-configured derivative” value is given as 2.19- to 3.07 fold. It took 69.71 ± 0.04 µM to reach half-maximal cytotoxicity in series [2] (CC50).
Consider `CCCCCCCCCCCCCCCCCCCCO[C@@H]1CCC[C@H]1COP(=O)([O-])OCC[N+](C)(C)C` [Compound 2c], for which, in series [1], the “Selectivity Index” value was 2.19, the “Relative Potency to Miltefosine” value amounted to 7.46 fold, the IC50 was 19.6 ± 0.44 µM and the “fold increase in potency of anti-amoebic activity relative to corresponding cis-configured derivative” value is recorded as 2.19- to 3.07 fold. In addition, in series [2], the CC50 was found to be 43 ± 8.37 µM.
The corresponding values for `CCCCCCCCCCCCCCCCCCCCCCO[C@@H]1CCC[C@H]1COP(=O)([O-])OCC[N+](C)(C)C` [Compound 2d] are 1.28, 2.63 fold, 55.6 ± 3.32 µM, 2.98 fold and 71.03 ± 0.61 µM.
For the compound `CCCCCCCCCCCCOC[C@@H]1CCC[C@H]1OP(=O)([O-])OCC[N+](C)(C)C` [Compound 3a], in series [1], the “Selectivity Index” value is reported as above 1.43, the “Relative Potency to Miltefosine” value stood at 0.52 fold and the IC50 turned out to be 279.4 ± 0.94 µM. Moreover, in series [2], the CC50 was above 400 µM.
Regarding `CCCCCCCCCCCCCCCCCCOC[C@@H]1CCC[C@H]1OP(=O)([O-])OCC[N+](C)(C)C` [Compound 3c], in series [1], the “Selectivity Index” value stood at 0.77, the “Relative Potency to Miltefosine” value is recorded as 1.92 fold and the IC50 is 76.3 ± 1.56 µM. In series [2], this compound came in with a CC50 of 58.5 ± 2.08 µM.
